{"source": "patent US20160374944A1", "about": "“COMPOSITIONS AND METHODS FOR TREATING AND PREVENTING CANCER BY TARGETING AND INHIBITING CANCER STEM CELLS” (priority 2011, published 2016)", "key": {"[1]": {"tested_on": "Gli transcriptional activity in pancreatic CSCs", "assay": "Gli-responsive GFP/firefly luciferase reporter", "assay_type": "cell-based, human", "protocol": "(A) Pancreatic CSCs were treated with rottlerin (0-1 μM) for 24 h. The expression of Patched-1, Smo and Gli-2 was measured by qRT-PCR. […] (B) Pancreatic CSCs were transduced with Gli-responsive GFP/firefly luciferase viral particles (pGreen Fire1-Gli with EF1, System Biosciences). After transduction, culture medium was replaced and CSCs were treated with rottlerin (0-2 μM) for 24 h. Gli-responsive reporter activity was measured using a luciferase assay (Promega Corporation).\nFIG. 40A and FIG. 40C are graphs and photographs showing the inhibition of components of sonic hedgehog pathway, Gli transcription and nuclear translocation by EGCG. (A) Inhibition of components of sonic hedgehog pathway and Gli transcription. Pancreatic CSCs were treated with EGCG (0-60 μM) for 36 h. The expression of Smothened (Smo), patched 1 (PTCH1), patched 2 (PTCH2), was measured by q-RT-PCR. […] (B) Inhibition of Gli1 and Gli2 expression and Gli transcription. Pancreatic CSCs were treated with EGCG (0-60 μM) for 36 h. The expression of Gli1 and Gli2 was measured by q-RT-PCR. Gli reporter activity. CSCs were transduced with Gli-responsive GFP/firefly luciferase viral particles (pGreen Fire1-Gli with EF1, System Biosciences). After transduction, culture medium was replaced and CSCs were treated with EGCG (0-60 μM) for 24 h. Gli-responsive reporter activity was measured by luciferase assay (Promega Corporation). […] Stained cells were mounted and visualized under a fluorescence microscope. Blue fluorescence of DAPI was changed to red color for a better contrast.\nFIG. 42A and FIG. 42B show graphs showing quercetin synergizes with EGCG to inhibit self-renewal capacity, invasion, migration, and TCF/LEF and Gli transcriptional activities in pancreatic CSCs. […] Cell viability was measured by trypan blue assay. […] At the end of incubation period, colonies were counted. […] Cells invaded to the lower chambered were fixed with methanol, stained with crystal violet and counted. […] Cells migrated to the lower chambered were fixed with methanol, stained with crystal violet and counted. […] Apoptosis was measured by TUNEL assay. […]"}, "[2]": {"tested_on": "Gli1 and Gli2 in pancreatic CSCs", "assay": "nuclear translocation of Gli1 and Gli2 (immunostaining)", "assay_type": "cell-based, human", "settings": "EGCG 40 or 60 μM, 24 h", "description": "Pancreatic CSCs were treated with or without EGCG (40 or 60 μM) for 24 h. At the end of incubation period, CSCs were fixed with paraformaldehyde, permeabilized with titron X100, and blocked with 5% normal goat serum. Cells were then treated with either anti-Gli1 or anti-Gli2 antibody, followed by secondary antibody plus DAPI. Stained cells were mounted and visualized under a fluorescence microscope. Blue fluorescence of DAPI was changed to red color for a better contrast."}, "[3]": {"tested_on": "Pancreatic CSCs", "assay": "spheroid formation and cell viability in spheroids (trypan blue)", "assay_type": "cell-based, human", "settings": "SFN 0-10 μM with or without quercetin 20 μM, 7 days"}, "[4]": {"tested_on": "Prostate CSCs", "assay": "spheroid formation and cell viability in spheroids (trypan blue)", "assay_type": "cell-based, human", "settings": "7 and 14 days, embelin 0-6 μM, rottlerin 0-2 μM", "protocol": "(§1) In particular, embelin is shown to inhibit spheroid and colony formation, and induce caspase-3 and apoptosis. (A) Prostate CSCs were grown in CSC medium and treated with embelin (0-6 μM) for 7 days to obtain primary spheroids. At the end of incubation period, spheroids were collected, reseeded and treated with embelin for another week to obtain secondary spheroids. Cell viability in spheroids was measured by trypan blue assay at the end of 7 and 14 days. […] (B) Prostate CSCs were seeded in soft agar and treated with embelin (0-6 μM) for 21 days. […] (C and D) Activation of caspase-3 and induction of apoptosis is shown.\nas §1, with “(A)” for “In particular, embelin is shown to inhibit spheroid and colony formation, and induce caspase-3 and apoptosis. (A)”, “rottlerin (0-2” for “embelin (0-6”, “rottlerin” for “embelin”, “apoptosis.” for “apoptosis is shown.”\nThe effects of embelin on growth of prostate CSCs was studied by measuring cell viability and colony formation, as shown in FIGS. 9A and 9B. […]"}, "[5]": {"tested_on": "Prostate CSCs", "assay": "apoptosis", "assay_type": "cell-based, human", "settings": "embelin 0-6 μM 48 h; rottlerin 0-2 μM 24 h", "protocol": "as §1\nas §1, with “(A)” for “In particular, embelin is shown to inhibit spheroid and colony formation, and induce caspase-3 and apoptosis. (A)”, “rottlerin (0-2” for “embelin (0-6”, “rottlerin” for “embelin”, “apoptosis.” for “apoptosis is shown.”"}, "[6]": {"tested_on": "Brain CSCs", "assay": "cell viability by XTT assay", "assay_type": "cell-based", "settings": "3 days; 0-20 μM", "protocol": "(A-B) Brain CSCs were treated with sulforaphane (0-20 μM), and honokiol (0-20 μM) for 3 days, and cell viability was measured by XTT assay."}}}
{"smiles": "O=C(O[C@@H]1Cc2c(O)cc(O)cc2O[C@@H]1c1cc(O)c(O)c(O)c1)c1cc(O)c(O)c(O)c1", "note": "[EGCG, epigallocatechin gallate]", "values": [{"measurement": "Gli transcriptional activity", "setting": "[1]; EGCG 0-60 μM, 24 h, luciferase assay", "value": "inhibited Gli transcriptional activity in a dose-dependent manner"}, {"measurement": "Gli transcriptional activity", "setting": "[1]; EGCG 40 μM with or without quercetin 20 μM, 48 hrs, luciferase", "value": "inhibited"}, {"measurement": "nuclear expression of Gli1 protein", "setting": "[2]", "value": "inhibited the nuclear expression"}, {"measurement": "nuclear expression of Gli2 protein", "setting": "[2]", "value": "inhibited the nuclear expression"}]}
{"smiles": "O=c1c(O)c(-c2ccc(O)c(O)c2)oc2cc(O)cc(O)c12", "note": "[quercetin]", "values": [{"measurement": "cell viability in spheroids", "setting": "[3]", "value": "effective alone"}]}
{"smiles": "CC(=O)c1c(O)c(C)c(O)c(Cc2c(O)c3c(c(C(=O)/C=C/c4ccccc4)c2O)OC(C)(C)C=C3)c1O", "note": "[rottlerin]", "values": [{"measurement": "size of primary and secondary spheroids in suspension", "setting": "[4]; data not shown", "value": "inhibited the size"}, {"measurement": "cell viability in spheroids", "setting": "[4]; primary and secondary spheroids, trypan blue", "value": "inhibited"}, {"measurement": "Gli transcriptional activity", "setting": "[1]; rottlerin 0-2 μM, 24 h, luciferase assay", "value": "inhibited Gli transcriptional activity in a dose-dependent manner"}, {"measurement": "apoptosis", "setting": "[5]", "value": "induces"}]}
{"smiles": "C[S+]([O-])CCCCN=C=S", "note": "(centres unmarked) [sulforaphane]", "values": [{"measurement": "cell viability in spheroids", "setting": "[3]", "value": "inhibited the cell viability and colony formation of pancreatic CSCs in a dose-dependent manner"}, {"measurement": "cell viability", "setting": "[6]", "value": "inhibit cell viability"}]}
